# Test results from a melting point compilation (Tetko et al.; mined from patent text by program, amines drawn as free bases though some values may be those of a salt).
row,melting point [°C],Structure (SMILES)
1,178 to 179,N=C(Nc1cc(Cl)cc(NC(=O)/C=C/c2ccccc2C(F)(F)F)c1)c1cccs1
2,250 to 252,Cc1ccc(S(=O)(=O)NCC(CC(=O)Nc2ccc(C(=O)O)cc2)c2ccc(Cl)cc2)cc1 (centres undefined)
3,211 to 212,COc1ccc2nc(C3(c4ccc(S(N)(=O)=O)cc4)C=C(C(F)F)NN3)sc2c1 (centres undefined)
4,252 to 255,O=c1c2c(Cc3ccccc3C(F)(F)F)n[nH]c2c2cccnc2n1-c1cccc(OC(F)(F)F)c1
5,128 to 129,C=CCNC(=O)CC(=O)C=Cc1ccccc1[N+](=O)[O-]
6,214 to 216,Fc1ccc(Nc2ccnc3cc(Cl)ccc23)cc1
7,195 to 196,O=c1oc(-c2ccccc2)cc(O)c1CCCc1ccccc1
8,218 to 220,CC(C)(C)n1c(=O)[nH]c2ccccc2c1=O
9,148,C[C@@H](COC(F)(F)C(F)F)[C@](O)(Cn1cncn1)c1ccc(F)cc1F
10,121,Clc1ccc(-c2oncc2-c2ccncc2)cc1
11,66,Cc1ccc2c(NCc3ccc(NC(=O)C4CCN(Cc5ccccc5)CC4)cc3)nc(N3CCCCCC3)nc2c1
12,241,CC(=O)Nc1nc(C)c(S(=O)(=O)N2CCC(O)C2)s1 (racemic)
13,149 to 151,Cc1ncc(OC2CCCCO2)c(=O)[nH]1 (centres undefined)
14,164 to 166,COC(=O)c1ccc(-c2ccc(C#N)s2)nc1
15,197 to 199,CCc1cc(Cl)cc2c1OC(C(F)(F)F)C(C(=O)O)=C2 (centres undefined)
16,243 to 245,C/C=C/c1cccc2c(=O)c(C)c(C(N)=O)oc12
17,117 to 118,C#Cc1c(-c2ccc(F)cc2)nn(-c2ccccc2)c1C(C)C
18,121,O=C1CCCc2cc(S(=O)(=O)c3ccccc3)ccc21
19,204 to 210,CCC(C)C(C)C(=O)Nc1ccc2c(C)cn3c(=O)c(C(=O)OCCNC(=O)c4cccnc4)cnc3c2c1 (centres undefined)
20,183 to 184,CC(C)CC(=O)Nc1c(C(=O)c2cc(Cl)ccn2)[nH]c2cc(Cl)ccc12
21,156 to 159,CC(=O)OCC(=O)NCCCn1c(-c2ccc(Br)cc2)csc1=Nc1ccccc1
22,166 to 169,CNCC1(C2(O)CCCC2)Cc2cc3sccc3cc21 (centres undefined)
23,121 to 122,COc1ccc(Oc2ccc(C(=O)C(=O)c3ccc(Oc4ccc(OC)cc4)cc3)cc2)cc1
24,178 to 180,N#Cc1cccc(C(=O)N2CCN(c3ccc(NC(=O)c4ccccc4-c4ccc(C(F)(F)F)cc4)cc3)CC2)c1

row,melting point [°C],Structure (SMILES)
1,284 to 285,COC(=O)C1=C(C)NC(C)=C(C(=O)OC)C1c1ccccc1NC(C)=O
2,80.5 to 89.9,CNN1c2c(cc(Oc3ccc(F)cc3F)c(=O)n2NC)C=NC1S(=O)Cc1ccccc1 (centres undefined)
3,171 to 173,Cc1c(C=NO)c2ccccc2n1-c1ccc(OCc2ccccc2)cc1
4,138 to 140,Cc1cn(COCCO)c(=O)[nH]c1=O
5,139,CC(C)(C)OC(=O)N[C@@H](Cc1cc(F)cc(F)c1)C(=O)CCl
6,90 to 92,COc1ccc(N2C=Cc3cc(S(N)(=O)=O)sc3S2(=O)=O)cc1
7,64,CC(=O)c1c(F)cccc1N1CCN(CCCCOc2ccc3c(n2)NC(=O)CC3)CC1
8,143 to 146,CC[C@H](COC)n1cc(Cl)nc(N2CCc3cc(Cl)cc(Cl)c32)c1=O
9,142 to 144,CC(=O)N1CCc2cc(S(=O)(=O)n3c(COC(C)(C)C(=O)O)cc4cc(Cl)ccc43)ccc21
10,87 to 90,CC(C)Nc1nc(N)nc2c1ncn2C1C=CC(CO)C1 (centres undefined)
11,111 to 113,CCOc1ccc(Nc2nc(=O)cc(N)n2-c2ccccc2)cc1
12,290 to 292,O=c1cc(-c2ccc3ccccc3c2)[nH]c2ccccc12
13,184 to 185,CCCN1C(=O)N2C[C@@H](Cc3ccccc3)N=C2c2c1nc(C=O)n2Cc1ccccc1
14,114 to 116,CCc1nc(NC(=O)NS(=O)(=O)c2ccccc2OC(F)F)nc(OC)n1
15,232,O=C(O)CCc1ccc(-c2nc(=O)c3ccccc3s2)nc1
16,66,Cc1ccc2c(c1)[C@H](Nc1nc(NC=O)nc(C(F)F)n1)[C@@H](C)C2
17,188 to 190,O=Cc1cc2cc(Cl)c(Cl)cc2[nH]1
18,155 to 157,O=C1c2ccccc2C(=O)N1OCc1cn(C(c2ccccc2)(c2ccccc2)c2ccccc2)cn1
19,204 to 206,CCOc1cc([N+](=O)[O-])ccc1N1C(=O)c2ccccc2C1=O
20,191,CCCc1nc(NN)nc(O)c1Cc1ccc(-c2ccccc2C#N)cc1
21,> 250,CCOCc1nc2c(N)nc3cc(-c4cccc(C(=O)O)c4)ccc3c2n1CC(C)(C)O
22,120 to 121,CC(C)CCCC(C)C1CCC2C3C=CC4=CC(O)CC(O)C4(C)C3CCC12C (centres undefined)
23,161 to 164,CN(CCP(O)O)c1cc(Oc2ccc(C(F)(F)F)cc2Cl)ccc1[N+](=O)[O-]
24,127 to 129,Cc1csc2c(Br)c(C=O)sc12

row,melting point [°C],Structure (SMILES)
1,230,Oc1ccc2nc(-n3ccnc3)nc(NCc3ccccc3)c2c1
2,168 to 170,CCC(CC)Cn1c(=O)c(=O)[nH]c2ccc(NC(C)=O)cc21
3,129,CS(=O)(=O)c1ccc(OCc2ccccc2)c(C=O)c1
4,140,OC1CCc2[nH]c3ccccc3c2C1 (centres undefined)
5,193 to 195,CN(C)CCN(C(=O)N(C)C)c1nc2ccccc2[nH]1
6,111 to 113,O=C(c1ccc(-c2cnc3c(c2)N(Cc2cc(F)ccc2F)CCN3)cn1)N1CCOCC1
7,> 250,O=Cc1c[nH]c2c1ccc1c3ccc(Br)cc3[nH]c12
8,204 to 205,N#CC(=NNc1ccc(C(F)(F)F)cc1)C(=O)NCc1ccc(Cl)nc1
9,209 to 211,Cc1oc(-c2ccccc2)nc1CCOc1ccc(C=CC=CC=C2OC(=O)NC2=O)cc1
10,68 to 70,CC(C)(C)OC(=O)[C@@H]1CCCN2C(=O)CC[C@H](NS(C)(=O)=O)C(=O)N12
11,199 to 200,CCCc1nc2c(N)nc3cccnc3c2n1CC1(O)CC1
12,168 to 170,O=C(CCCOc1ccc(-c2ccc(Cl)cc2)cc1)NO
13,217,Nc1ccc(Sc2nnc3ccc(-c4ccc(F)cc4)cn23)cc1
14,125 to 126,CCc1nc(C(=O)c2ccc(Cl)cc2Cl)c(C(C)O)n1C(CC)CC (centres undefined)
15,192,NS(=O)(=O)c1ccc(-c2cccc(-c3nc(-c4ccc(C(F)(F)F)cc4F)cc(C(F)(F)F)n3)c2)s1
16,110,CCCc1cc2c(NCCc3ccccc3)ncnc2s1
17,158 to 160,COc1cc(N2CCOCC2)ccc1C(=O)O
18,183 to 185,O=C(O)C(=NO)C(c1ccc(OCc2ccc3ccccc3n2)cc1)c1ccc(OCc2ccc3ccccc3n2)cc1
19,108 to 110,Nc1ccc(C(=O)N(CCN2CCC(C(=O)c3ccc(F)cc3)CC2)c2cccc(N)c2)cc1
20,67 to 69,OCC1Cc2cc(Cl)cc(C3CCCCC3)c2O1 (centres undefined)
21,117 to 118,CCCOc1nsc(N=CN(C)C)c1C#N
22,> 300,O=c1c2ccc(Cl)cc2[nH]c2c(O)nn(C3CCCc4ccccc43)c(=O)c12 (racemic)
23,85 to 86,O=Cc1ccc2c(c1)CCC2
24,134 to 135,O=C(O)C1CSC(c2cc(Cl)ccc2OCCO[N+](=O)[O-])N1 (centres undefined)

row,melting point [°C],Structure (SMILES)
1,86,COC(=O)CN(C)c1nc(-c2ccc(Br)cc2)cs1
2,104 to 106,CC(C)(C)c1nc2c(Cl)ccc(-n3c(=O)cc(C(F)(F)F)n(N)c3=O)c2o1
3,187 to 189,O=C(O)C1c2cc(Br)ccc2COc2ccccc21 (centres undefined)
4,84.5 to 87.5,Cc1c2c(nn1-c1ccc(Cl)cc1F)CCCC2
5,129 to 130,CN(C)c1ccc([N+](=O)[O-])c(C(OC(=O)C(Cl)(Cl)Cl)c2ccccc2)c1[N+](=O)[O-] (centres undefined)
6,174 to 176,Cc1cc(N)ccc1-c1ccc(-c2ccc(N)cc2C)o1
7,84 to 85,CC(=O)c1c(-c2ccccc2)nn2ccccc12
8,130 to 131,O=C1CCC(C(=O)OCc2ccccn2)N1 (centres undefined)
9,191 to 194,O=C1C2CC3CC2C(C(=O)O)(C3)N1Cc1ccccc1 (centres undefined)
10,217 to 218,COc1ccc2nc(-c3cc(C(F)(F)F)nn3-c3ccc(S(C)(=O)=O)cc3)sc2c1
11,106 to 107,OCc1cnoc1-c1ccc(C(F)(F)F)cc1
12,246 to 247,CCOC(=O)c1c(-c2ccccc2)n(-c2ccc(OC)cc2)c2ccccc2c1=O
13,75 to 78,CC(C)Cc1ccc(C(C)C(=N)NO)cc1 (centres undefined)
14,199 to 200,Nc1nccc(-c2c(-c3ccc(F)cc3)ncn2C2CCNCC2)n1
15,108 to 110,CCc1nn(CCO)c(CC)c1Oc1cc(-n2cccn2)cc(-n2cccn2)c1
16,185 to 186,CC(=O)Nc1cc(F)ccc1O
17,245 to 246,Cn1cc(C2=C(c3cn(C)c4cc(CO)ccc34)C(=O)NC2=O)c2ccccc21
18,199 to 200,CS(=O)(=O)c1ccc(/C(=C(\CC(=O)O)C(=O)O)c2ccc(Cl)cc2)cc1
19,123 to 125,CS(=O)(=O)c1ccc(Oc2cc3nc(-c4ccccc4)oc3cc2[N+](=O)[O-])cc1
20,96 to 98,FC(F)(F)C(F)(F)C(F)(F)C(F)(F)C(F)(F)C(F)(F)C(F)(F)C(F)(F)C(F)(F)C(F)(F)C(F)(F)Br
21,216 to 217,CCCSc1sc(C(=O)O)c2c1-c1c(cnn1C)CC2
22,165 to 180,CC(NC(=O)c1c[nH]c2ncc(-c3nn(CC(O)CO)c4cc(Cl)ccc34)nc12)C(=O)N1CC(C#N)C1 (centres undefined)

row,Structure (SMILES),melting point [°C]
1,COc1ccc(C[C@H]2C3=C(CCCC3)CCN2C(C)=O)cc1,80 to 81.5
2,CC1=C2CCC3C(CCC4(C)C3CCC4(C)O)C2(C)CCC1=O (centres undefined),141 to 144
3,CCCCCC(C)C(C)c1cc(OC)c2c(c1)OC(C)(C)C1=C2CN(C(N)=NO)CC1 (centres undefined),176 to 178
4,Cc1nnc2n1-c1sc(C#CCCN3C(=O)c4cccc5cccc(c45)C3=O)cc1C(c1ccccc1Cl)=NC2,175 to 179
5,CN(C)C1(c2cccc(F)c2)CCC(=CC(=O)NCCCc2ccccc2)CC1 (centres undefined),129 to 131
